Results reported in patent US20170231929A1, “METHOD FOR ENHANCING IMMUNE CELL FUNCTION AND METHOD FOR ASSESSING IMMUNE CELL MULTIFUNCTIONALITY” (NATIONAL UNIVERSITY CORPORATION OKAYAMA UNIVERSITY, priority 2014, published 2017).
Several values for one entry are separate records, joined by “and”; a condition that tells them apart may be missing. Identical values can stand only once. Entries after “also recorded” stand apart in the source; their conditions may differ.

Test system: CD8^+T cells
Assay: Multifunctionality of CD8^+T cells of healthy subjects after metformin treatment of PBMC (flow cytometer)
Assay type: cell-based, human
Description: 1. Peripheral blood was obtained from a test subject, and PBMC was separated by a density-gradient centrifugation using a lymphocyte-separating reagent Ficoll-Paque® (GE Healthcare). 3 mL of Ficoll-Paque® was dispensed in a 15-mL tube. 8 mL of the peripheral blood was gently placed on the reagent. At this time, care should be taken not to mix Ficoll-Paque® with the peripheral blood. Centrifugation was performed at 400 g for 30 minutes, thereby separating PBMC. 2. The separated PBMC was preserved in a −150° C. freezer or liquid nitrogen using Bambang Car cell preservation liquid by adjusting the cell number to 2.0×10^6 cell/tube. 3. In the test, the thawed PBMC was cultured for 1 to 10 hours in the presence or absence of […]. The culture was performed using a 24-well plate, and the cell number was adjusted to about 5.0×10^5 cell/well. 4. The cells were collected after 1 to 10 hours, washed with medium, and cultured in the presence of a cell activation reagent (potent nanomolar activator of protein kinase C (PMA, 50 ng/mL), ionomycin (1 μM)) for 6 hours, thereby non-specifically stimulating T cells. At this time, BD Gorgi Stop™ was added to keep the produced cytokines inside the cells. 5. The cells were isolated and washed twice with a cell-staining buffer. First, staining of CD8, PD-1, Tim-3, which are molecules expressed on the T cell surface, was performed. In the staining, a staining buffer was added in an amount of 50 μL per sample. The culture was performed at 4° C. for 30 minutes. 6. The cells were collected and washed twice with a cell-staining buffer. 500 μL of BD Cytofix/Cytoperm was added and cultured at 4° C. for 30 minutes. 7. The cells were collected and washed twice with BD Perm/Wash™. Staining of cytokines IL-2, TNFα, and IFNγ was performed. In the staining, BD Perm/Wash™ was added in an amount of 50 μL per sample. The culture was performed at 4° C. for 30 minutes. 8. The cells were collected and washed twice with BD Perm/Wash™, and 200 μL of BD Perm/Wash™ was added. 9. Analysis was performed using a FACSCanto™ II flow cytometer (Becton, Dickinson and Company).
Among the PBMC treated with PMA/ionomycin in the method shown in (2) above, first, a gate was applied to CD8^+T cells using a FACSCanto™ II flow cytometer (Becton, Dickinson and Company), and then […] were removed by FSC-A and FSC-H. Using parameters FSC-A and SSC-A, a gate was applied to a lymphocyte group, thereby analyzing expression of PD-1 and Tim-3. Further, intracellular cytokines IFNγ, TNFα, and IL-2 were stained, and multifunctionality of CD8^+T cells contained in the PBMC was analyzed (FIG. 1).
PBMC obtained from healthy subjects (N=10) was cultured for an hour in the presence or absence of metformin by the method shown in (2). After metformin was removed, the PBMC was subjected to stimulating culture with PMA/ionomycin for 6 hours by the method shown in (3). Among the resulting PBMC, CD8^+T cells capable of simultaneously producing three kinds of cytokines, i.e., IFNγ, TNFα, and IL-2, were detected. The CD8^+T cells untreated with metformin were determined to be 0.11%, and the CD8^+T cells treated with metformin were determined to be 0.09% (FIG. 2). Accordingly, it was judged that multifunctionality of CD8^+T cells was not increased by a metformin treatment in healthy subjects.
In the PBMC of healthy subjects treated as above, the ratios of CD8^+T cells producing three kinds of cytokines (IFNγ/TNFα/IL-2), CD8^+T cells producing two kinds of cytokines (IFNγ/TNFα or IFNγ/IL-2), and CD8^+T cells producing one kind of cytokine (IFNγ) to the entire CD8^+T cells were calculated and shown in Table 1. The calculation results were compared between the metformin-untreated group (control) and the metformin-treated group (metformin).

[1] = PD-1+, Tim-3+, Healthy Subjects, subjects/total
[2] = PD-1+, Tim-3−, Healthy Subjects, subjects/total
[3] = PD-1−, Tim-3+, Healthy Subjects, subjects/total
[4] = PD-1−, Tim-3−, Healthy Subjects, subjects/total
[5] = Total CD8T, Healthy Subjects, subjects/total
[6] = healthy subjects, PBMC cultured an hour with metformin, then PMA/ionomycin 6 hours, each table row = one subject
[7] = healthy subjects, each table row = one subject
[8] = total CD8^+T cells, healthy subjects

## CN(C)C(=N)N=C(N)N [metformin]
[1]
  Decrease, IFNγ 1-cytokine-producing cell: 4/10
  Decrease, IFNγ/IL-2 2-cytokine-producing cell: 4/10
  Decrease, IFNγ/TNFα 2-cytokine-producing cell: 6/10
  Decrease, IFNγ/TNFα/IL2 3-cytokine-producing cell: 1/10
  Increase, IFNγ 1-cytokine-producing cell: 6/10
  Increase, IFNγ/IL-2 2-cytokine-producing cell: 2/10
  Increase, IFNγ/TNFα 2-cytokine-producing cell: 3/10
  Increase, IFNγ/TNFα/IL2 3-cytokine-producing cell: 3/10 and 5/10
  No Change, IFNγ 1-cytokine-producing cell: 0/10
  No Change, IFNγ/IL-2 2-cytokine-producing cell: 4/10
  No Change, IFNγ/TNFα 2-cytokine-producing cell: 1/10
  No Change, IFNγ/TNFα/IL2 3-cytokine-producing cell: 4/10
[2]
  Decrease, IFNγ 1-cytokine-producing cell: 5/10
  Decrease, IFNγ/IL-2 2-cytokine-producing cell: 6/10
  Decrease, IFNγ/TNFα 2-cytokine-producing cell: 4/10
  Decrease, IFNγ/TNFα/IL2 3-cytokine-producing cell: 5/10
  Increase, IFNγ 1-cytokine-producing cell: 2/10
  Increase, IFNγ/IL-2 2-cytokine-producing cell: 3/10
  Increase, IFNγ/TNFα 2-cytokine-producing cell: 3/10
  Increase, IFNγ/TNFα/IL2 3-cytokine-producing cell: 3/10
  No Change, IFNγ 1-cytokine-producing cell: 3/10
  No Change, IFNγ/IL-2 2-cytokine-producing cell: 1/10
  No Change, IFNγ/TNFα 2-cytokine-producing cell: 3/10
  No Change, IFNγ/TNFα/IL2 3-cytokine-producing cell: 2/10
[3]
  Decrease, IFNγ 1-cytokine-producing cell: 6/10
  Decrease, IFNγ/IL-2 2-cytokine-producing cell: 4/10
  Decrease, IFNγ/TNFα 2-cytokine-producing cell: 5/10
  Decrease, IFNγ/TNFα/IL2 3-cytokine-producing cell: 3/10
  Increase, IFNγ 1-cytokine-producing cell: 2/10
  Increase, IFNγ/IL-2 2-cytokine-producing cell: 1/10
  Increase, IFNγ/TNFα 2-cytokine-producing cell: 3/10
  Increase, IFNγ/TNFα/IL2 3-cytokine-producing cell: 1/10
  No Change, IFNγ 1-cytokine-producing cell: 2/10
  No Change, IFNγ/IL-2 2-cytokine-producing cell: 5/10
  No Change, IFNγ/TNFα 2-cytokine-producing cell: 2/10
  No Change, IFNγ/TNFα/IL2 3-cytokine-producing cell: 6/10
[4]
  Decrease, IFNγ 1-cytokine-producing cell: 4/10
  Decrease, IFNγ/IL-2 2-cytokine-producing cell: 5/10
  Decrease, IFNγ/TNFα 2-cytokine-producing cell: 4/10
  Decrease, IFNγ/TNFα/IL2 3-cytokine-producing cell: 7/10
  Increase, IFNγ 1-cytokine-producing cell: 2/10
  Increase, IFNγ/IL-2 2-cytokine-producing cell: 4/10
  Increase, IFNγ/TNFα 2-cytokine-producing cell: 4/10
  Increase, IFNγ/TNFα/IL2 3-cytokine-producing cell: 2/10
  No Change, IFNγ 1-cytokine-producing cell: 4/10
  No Change, IFNγ/IL-2 2-cytokine-producing cell: 1/10
  No Change, IFNγ/TNFα 2-cytokine-producing cell: 2/10
  No Change, IFNγ/TNFα/IL2 3-cytokine-producing cell: 1/10
Total CD8T, Healthy Subjects
  Increase + No Change, IFNγ/TNFα/IL2, share of subjects: 30%
[5]
  Decrease, IFNγ 1-cytokine-producing cell: 2/10
  Decrease, IFNγ/IL-2 2-cytokine-producing cell: 6/10
  Decrease, IFNγ/TNFα 2-cytokine-producing cell: 5/10
  Decrease, IFNγ/TNFα/IL2 3-cytokine-producing cell: 7/10
  Increase + No Change, IFNγ/TNFα/IL2: 3/10
  Increase, IFNγ 1-cytokine-producing cell: 4/10
  Increase, IFNγ/IL-2 2-cytokine-producing cell: 3/10
  Increase, IFNγ/TNFα 2-cytokine-producing cell: 3/10
  Increase, IFNγ/TNFα/IL2 3-cytokine-producing cell: 0/10
  No Change, IFNγ 1-cytokine-producing cell: 4/10
  No Change, IFNγ/IL-2 2-cytokine-producing cell: 1/10
  No Change, IFNγ/TNFα 2-cytokine-producing cell: 2/10
  No Change, IFNγ/TNFα/IL2 3-cytokine-producing cell: 3/10
Healthy subjects, FIG. 2, untreated with metformin 0.11%
  CD8^+T cells capable of simultaneously producing IFNγ, TNFα and IL-2, treated with metformin: 0.09%
[6]
  ratio of CD8^+T cells producing one kind of cytokine (IFNγ) to the entire CD8^+T cells, metformin: 13.18% and 16.70% and 8.18% and 11.64% and 4.62% and 1.68% and 6.23% and 0.95% and 1.87% and 12.00%
  ratio of CD8^+T cells producing two kinds of cytokines (IFNγ/IL-2) to the entire CD8^+T cells, metformin: 0.47% and 0.48% and 0.71% and 0.28% and 0.15% and 0.03% and 0.21% and 0.05% and 0.14% and 0.24%
  ratio of CD8^+T cells producing two kinds of cytokines (IFNγ/TNFα) to the entire CD8^+T cells, metformin: 31.38% and 3.54% and 32.26% and 11.52% and 16.84% and 1.50% and 11.17% and 0.12% and 1.08% and 3.98%
[7]
  change of IFNγ producing CD8^+T cell ratio by metformin treatment vs control: → (other cases with no significant differences); also recorded: ↑ (a 10% or more increase by a metformin treatment); also recorded: ↓ (a 10% or more decrease by a metformin treatment)
  change of IFNγ/IL-2 producing CD8^+T cell ratio by metformin treatment vs control: ↓ (a 10% or more decrease by a metformin treatment); also recorded: ↑ (a 10% or more increase by a metformin treatment); also recorded: → (other cases with no significant differences)
  change of IFNγ/TNFα producing CD8^+T cell ratio by metformin treatment vs control: ↓ (a 10% or more decrease by a metformin treatment); also recorded: ↑ (a 10% or more increase by a metformin treatment); also recorded: → (other cases with no significant differences)
Healthy subjects, judgement from FIG. 2
  multifunctionality of CD8^+T cells by a metformin treatment: not increased
[8]
  decrease in multifunctionality (three kinds of cytokines), share of subjects: 70%
  increase in multifunctionality (three kinds of cytokines), share of subjects: 0%
